Experimental data from US10188615B2, “Alkoxy compounds for disease treatment” (Acucela Inc., priority 2007, dated 2019).
Where two headings read alike, the source gives them in different places.

Experiments:
[1] = target: isomerase (Mus musculus (Mouse), UniProt Q91ZQ5); assay: In vivo murine isomerase assay (recovery of 11-cis-retinal after photobleaching); parameters: species or system mice; conditions: for inhibition at 1 mg/kg: read-out: % Inhibition 1 mg/kg, 4 h; for ED50: in vivo inhibition of isomerase, Table 10
Sequence of isomerase (Q91ZQ5 whole entry): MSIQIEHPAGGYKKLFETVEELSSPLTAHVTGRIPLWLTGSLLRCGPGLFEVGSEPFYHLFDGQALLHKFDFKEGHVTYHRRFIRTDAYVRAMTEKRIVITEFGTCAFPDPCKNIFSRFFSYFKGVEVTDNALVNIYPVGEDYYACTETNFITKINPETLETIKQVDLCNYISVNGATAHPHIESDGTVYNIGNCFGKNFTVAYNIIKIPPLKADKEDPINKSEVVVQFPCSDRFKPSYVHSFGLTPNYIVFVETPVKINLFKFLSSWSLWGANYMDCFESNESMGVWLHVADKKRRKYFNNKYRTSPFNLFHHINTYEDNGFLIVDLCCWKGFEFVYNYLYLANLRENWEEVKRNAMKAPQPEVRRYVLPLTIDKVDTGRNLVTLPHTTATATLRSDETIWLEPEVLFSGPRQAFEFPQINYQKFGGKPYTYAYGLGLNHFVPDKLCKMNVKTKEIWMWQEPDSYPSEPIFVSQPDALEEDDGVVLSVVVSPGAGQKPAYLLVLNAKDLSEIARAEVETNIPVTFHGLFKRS
Protocol: The capability of compounds described herein to inhibit isomerase was determined by an in vivo murine isomerase assay. Brief exposure of the eye to intense light (“photobleaching” of the visual pigment or simply “bleaching”) is known to photo-isomerize almost all 11-cis-retinal in the retina. The recovery of 11-cis-retinal after bleaching can be used to estimate the activity of isomerase in vivo. Delayed recovery, as represented by lower 11-cis-retinal oxime levels, indicates inhibition of isomerization reaction.
The mice were allowed to recover 2 hours in the dark. The animals were then sacrificed by carbon dioxide inhalation. Retinoids were extracted from the eye and the regeneration of 11-cis-retinal was assessed at various time intervals.
After the mice were sacrificed, the eyes were immediately removed and placed in liquid nitrogen for storage.
The eyes were placed in 500 μL of bis-tris propane buffer (10 mM, pH ˜7.3) and 20 µL of 0.8M hydroxile amine (pH-7.3). The eyes were cut up into small pieces with small iris scissors and then thoroughly homogenized at 30000 rpm with a mechanical homogenizer (Polytron PT 1300 D) in the tube until no visible tissue remained. 500 μL of methanol and 500 μL of heptane were added to each tube. The tubes were attached to a vortexer so that the contents were mixed thoroughly for 15 minutes in room temperature. The organic phase was separated from the aqueous phase by centrifugation for 10 min at 13K rpm, 4° C. 240 μL of the solution from the top layer (organic phase) was removed and transferred to clean 300 μl glass inserts in HPLC vials using glass pipette and the vials were crimped shut tightly.
Loading volume for each sample is 100 μl; detection wavelength is 360 nm. The area under the curve for 11-cis retinal oxime was calculated by Agilent Chemstation software and was recorded manually. Data processing was performed using Prizm software.
Positive control mice (no compound administered) were sacrificed fully dark-adapted and the eye retinoids analyzed. Light (bleached) control mice (no compound administered) were sacrificed and retinoids isolated and analyzed immediately after light treatment.
Mice were sacrificed 2 hours after bleaching, eyes were enucleated, and retinoid content was analyzed by HPLC.
Recovery control mice (vehicle-only treated) were light-treated and left to recover for 2 hours in the dark before sacrifice and analysis. Light control mice (vehicle only treated) were sacrificed for analysis immediately after photo-bleaching.

[2] = target: visual cycle isomerase (Bos taurus (Bovine), UniProt Q28175); assay: Bovine in vitro isomerase inhibition assay (RPE microsome membranes)
Sequence of visual cycle isomerase (Q28175 2-533): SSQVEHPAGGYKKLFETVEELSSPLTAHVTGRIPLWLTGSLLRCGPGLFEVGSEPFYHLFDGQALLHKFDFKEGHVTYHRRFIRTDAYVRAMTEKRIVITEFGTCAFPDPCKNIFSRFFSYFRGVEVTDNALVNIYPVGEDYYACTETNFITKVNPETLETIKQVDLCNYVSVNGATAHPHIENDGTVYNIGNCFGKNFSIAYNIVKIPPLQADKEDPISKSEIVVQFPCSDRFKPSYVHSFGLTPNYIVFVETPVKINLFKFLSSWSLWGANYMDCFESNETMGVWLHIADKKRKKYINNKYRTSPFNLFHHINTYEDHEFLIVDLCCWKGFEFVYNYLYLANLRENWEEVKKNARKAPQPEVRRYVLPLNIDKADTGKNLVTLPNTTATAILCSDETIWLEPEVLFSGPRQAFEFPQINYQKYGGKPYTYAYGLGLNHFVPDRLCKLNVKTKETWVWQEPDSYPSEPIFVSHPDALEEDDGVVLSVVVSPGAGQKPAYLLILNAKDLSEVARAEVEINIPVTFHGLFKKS
Protocol: The capability of compounds disclosed herein to inhibit the activity of a visual cycle isomerase was determined.
All tests were performed in duplicate.

[3] = target: recombinant human RPE65 and LRAT (Homo sapiens (Human), UniProt Q16518); assay: Human in vitro isomerase inhibition assay; format: biochemical; conditions: Human in vitro Inhibition data; inhibition of 11-cis-retinol formation; HEK293 homogenate, all-trans-retinol about 20 μM, 37° C., one hour; given as ranges
Sequence of recombinant human RPE65 and LRAT (Q16518 2-533): as the sequence (Q28175 2-533) above, with S2I, I135V, V154I, I299L, H320N, E321G, G426C counted along it
Protocol: The concentration dependent effect of the compounds disclosed herein on the retinol isomerization reaction was also evaluated with a recombinant human enzyme system. […] A homogenate of HEK293 cell clone expressing recombinant human RPE65 and LRAT were the source of the visual enzymes, and exogenous all-trans-retinol (about 20 μM) was used as the substrate. Recombinant human CRALBP (about 80 ug/mL) was added to enhance the formation of 11 cis-retinal. The 200 μL Bis-Tris Phosphate buffer (10 mM, pH 7.2) based reaction mixture also contains 0.5% BSA, and 1 mM NaPPi. In this assay, the reaction was carried out at 37° C. in duplicates for one hour and was terminated by addition of 300 μL methanol. The amount of reaction product, 11-cis-retinol, was measured by HPLC analysis following Heptane extraction of the reaction mixture. […] The ability of the numerous compounds disclosed herein to inhibit isomerization reaction is quantified and the respective IC50 value is determined.

[4] = Bovine in vitro Inhibition data, inhibition of 11-cis retinol formation, bovine RPE microsomes, 20 μM all-trans retinol, 37° C., 30 minutes, given as ranges

Compound | inhibition at 1 mg/kg [1] [%] | IC50 [3] [µM] | other results
NCCCc1cccc(OCC2CCCCC2)c1 [Example 1, 3-(3-(Cyclohexylmethoxy)phenyl)propan-1-amine] | 68 | – | IC50 [2, 4]: ≤ 1 µM
CCCC(CCC)COc1cccc(CCCN)c1 [Example 2, 3-(3-(2-Propylpentyloxy)phenyl)propan-1-amine] | 1 | – | IC50 [2, 4]: ≤ 1 µM
CCC(CC)COc1cccc(CCCN)c1 [Example 3, 3-(3-(2-Ethylbutoxy)phenyl)propan-1-amine] | 12 | – | IC50 [2, 4]: ≤ 1 µM
NCCC(=O)c1cccc(OCC2CCCCC2)c1 [Example 5, 3-Amino-1-(3-(cyclohexylmethoxy)phenyl)propan-1-one] | – | – | ED50 [1]: 1 mg/kg; IC50 [2, 4]: ≤ 1 µM
NCC(O)Cc1cccc(OCC2CCCCC2)c1 (centres unmarked) [Example 6, 1-Amino-3-(3-(cyclohexylmethoxy)phenyl)propan-2-ol] | – | – | IC50 [2, 4]: ≤ 1 µM
NCCOc1cccc(OCC2CCCCC2)c1 [Example 7, 2-(3-(Cyclohexylmethoxy)phenoxy)ethanamine] | 17 | – | ED50 [1]: 4.2 mg/kg; IC50 [2, 4]: ≤ 1 µM
NCCOc1cccc(OCc2ccccc2)c1 [Example 8, 2-(3-(Benzyloxy)phenoxy)ethanamine] | – | – | IC50 [2]: 1 to 10 µM
NCCOc1cccc(OCC2CCCCCC2)c1 [Example 9, 2-(3-(Cycloheptylmethoxy)phenoxy)ethanamine] | 6 | – | IC50 [2, 4]: ≤ 1 µM
NCCCc1cccc(OCC2(O)CCCCC2)c1 [Example 10, 1-((3-(3-Aminopropyl)phenoxy)methyl)cyclohexanol] | – | – | IC50 [2, 4]: ≤ 1 µM
NCCCc1cccc(OCC2(O)CCCCCC2)c1 [Example 11, 1-((3-(3-aminopropyl)phenoxy)methyl)cycloheptanol] | – | – | IC50 [2, 4]: ≤ 1 µM
NCCOc1cccc(OCC2(O)CCCCCC2)c1 [Example 18, 1-((3-(2-Aminoethoxy)Phenoxy)Methyl)Cycloheptanol] | – | – | IC50 [2]: 1 to 10 µM
CC(=O)NCCC(O)c1cccc(OCC2CCCCC2)c1 (centres unmarked) [Example 19, N-(3-(3-(cyclohexylmethoxy)phenyl)-3-hydroxypropyl)acetamide] | – | – | IC50 [2]: 1 to 10 µM
CCC(O)(CC)COc1cccc(C(O)CCN)c1 (centres unmarked) [Example 30, 3-((3-(3-Amino-1-hydroxypropyl)phenoxy)methyl)pentan-3-ol] | 57 | ≤ 0.01 | –
CCC(CC)COc1cccc(C(O)CCN)c1 (centres unmarked) [Example 45, 3-Amino-1-(3-(2-ethylbutoxy)phenyl)propan-1-ol] | 98 | ≤ 0.01 | –
NCCOc1cccc(OCCc2ccccc2)c1 [Example 47, 2-(3-Phenethoxyphenoxy)ethanamine] | 6 | – | –
CCCC(CCC)COc1cccc([C@H](O)[C@H](C)CN)c1 [Example 55, (1R,2R)-3-Amino-2-methyl-1-(3-(2-propylpentyloxy)phenyl)propan-1-ol] | 82 | ≤ 0.01 | –
CCC(CC)COc1cccc([C@H](O)[C@H](C)CN)c1 [Example 72, (1R,2R)-3-Amino-1-(3-(2-ethylbutoxy)phenyl)-2-methylpropan-1-ol] | 13 | ≤ 0.01 | –
COCCOCCOCC(=O)NCCC(O)c1cccc(OCC2CCCCC2)c1 (centres unmarked) [Example 77, N-(3-(3-(Cyclohexylmethoxy)phenyl)-3-hydroxypropyl)-2-(2-(2-methoxyethoxy)ethoxy)acetamide] | 22 | – | –
CCCCCOc1cccc(C(O)CCN)c1 (centres unmarked) [Example 87, 3-Amino-1-(3-(pentyloxy)phenyl)propan-1-ol] | – | ≤ 0.01 | –
COCCCCOc1cccc(C(O)CCN)c1 (centres unmarked) [Example 88, 3-Amino-1-(3-(4-methoxybutoxy)phenyl)propan-1-ol] | 78 | ≤ 0.01 | –
CC(C)CCOc1cccc(C(O)CCN)c1 (centres unmarked) [Example 107, 3-Amino-1-(3-(isopentyloxy)phenyl)propan-1-ol] | 62 | – | –
Cc1ccc(COc2cccc(CCCN)c2)cc1 [Example 119, 3-(3-(4-Methylbenzyloxy)phenyl)propan-1-amine] | – | – | IC50 (μM) [3]: No detectable
NCCCc1cccc(OCc2ccc(Cl)cc2)c1 [Example 120, 3-(3-(4-Chlorobenzyloxy)phenyl)propan-1-amine] | – | – | IC50 (μM) [3]: No detectable
COc1ccc(COc2cccc(CCCN)c2)cc1 [Example 121, 3-(3-(4-Methoxybenzyloxy)phenyl)propan-1-amine] | – | – | IC50 (μM) [3]: No detectable
NCCS(=O)(=O)c1cccc(OCC2CCCCC2)c1 [Example 125, 2-(3-(Cyclohexylmethoxy)phenylsulfonyl)ethanamine] | 4 | – | –
NCCOc1cccc(OCCO)c1 [Example 141, 2-(3-(2-Aminoethoxy)phenoxy)ethanol] | – | – | IC50 (μM) [3]: No detectable
COC(=O)c1cc(CCCN)cc(OCC2CCCCC2)c1 [Example 170, Methyl 3-(3-aminopropyl)-5-(cyclohexylmethoxy)benzoate] | – | > 10 | –
CN(C)CCC(=O)c1cccc(OCC2CCCCC2)c1 [Example 182, 1-(3-(Cyclohexylmethoxy)phenyl)-3-(dimethylamino)propan-1-one] | – | > 10 | –

The next lines start with results.

inhibition at 1 mg/kg [1] [%] | IC50 [3] [µM] | Compound | other results
– | ≤ 0.01 | NCCC(O)c1cccc(OCC2CCC2)c1 (centres unmarked) [Example 34, 3-Amino-1-(3-(cyclobutylmethoxy)phenyl)propan-1-ol] | –
95 | ≤ 0.01 | NCCC(O)c1cccc(OCC2CCCC2)c1 (centres unmarked) [Example 35, 3-Amino-1-(3-(Cyclopentylmethoxy)Phenyl)Propan-1-Ol] | –
47 | ≤ 0.01 | NCCC(O)c1cccc(OCC2CC3CCC2C3)c1 (centres unmarked) [Example 48, 3-Amino-1-(3-(bicyclo[2.2.1]heptan-2-ylmethoxy)phenyl)propan-1-ol] | –
10 | ≤ 0.01 | C[C@H](CN)[C@@H](O)c1cccc(OCC2CCCC2)c1 [Example 56, (1R,2R)-3-Amino-1-(3-(cyclopentylmethoxy)phenyl)-2-methylpropan-1-ol] | –
23 | – | C[C@@H](CN)[C@H](O)c1cccc(OCC2CCCCC2)c1 [Example 73, (1S,2S)-3-Amino-1-(3-(Cyclohexylmethoxy)Phenyl)-2-Methylpropan-1-Ol] | –
6 | ≤ 0.01 | C[C@H](CN)[C@@H](O)c1cccc(OCC2CCCCC2)c1 [Example 74, (1R,2R)-3-Amino-1-(3-(Cyclohexylmethoxy)Phenyl)-2-Methylpropan-1-Ol] | –
3 | – | N=C(N)CC(O)c1cccc(OCC2CCCCC2)c1 (centres unmarked) [Example 130, 3-(3-(Cyclohexylmethoxy)phenyl)-3-hydroxypropanimidamide] | –
– | ≤ 0.01 | NCCC(O)c1cccc(OCC2CCC(F)(F)CC2)c1 (centres unmarked) [Example 169, 3-Amino-1-(3-((4,4-difluorocyclohexyl)methoxy)phenyl)propan-1-ol] | –
– | ≤ 0.01 | NCC[C@@H](O)c1cccc(OC[C@H]2CC[C@@H](O)CC2)c1 [Example 171, (1,4-Cis)-4-((3-((R)-3-Amino-1-Hydroxypropyl)Phenoxy)Methyl)Cyclohexanol] | –
– | ≤ 0.01 | NCC[C@@H](O)c1cccc(OC[C@H]2CC[C@H](O)CC2)c1 [Example 172, (1,4-Trans)-4-((3-((R)-3-Amino-1-Hydroxypropyl)Phenoxy)Methyl)Cyclohexanol] | –
– | ≤ 0.01 | NCC[C@@H](O)c1cccc(OC[C@@H]2CCCC[C@H]2O)c1 [Example 175, (1,2-trans)-2-((3-((R)-3-Amino-1-hydroxypropyl)phenoxy)methyl)cyclohexanol] | –
– | ≤ 0.01 | NCC[C@@H](O)c1cccc(OC[C@H]2CCCC[C@H]2O)c1 [Example 176, (1,2-cis)-2-((3-((R)-3-Amino-1-hydroxypropyl)phenoxy)methyl)cyclohexanol] | –
